The term Kd denotes the free concentration of one partner at which half of the binding sites on the other are occupied at equilibrium, for simple one-to-one binding. Low readings indicate higher affinity, high ones lower affinity.

One test concerns the target T1, Thromboxane A2 receptor (Homo sapiens, UniProt P21731).
T1 sequence (P21731 whole entry): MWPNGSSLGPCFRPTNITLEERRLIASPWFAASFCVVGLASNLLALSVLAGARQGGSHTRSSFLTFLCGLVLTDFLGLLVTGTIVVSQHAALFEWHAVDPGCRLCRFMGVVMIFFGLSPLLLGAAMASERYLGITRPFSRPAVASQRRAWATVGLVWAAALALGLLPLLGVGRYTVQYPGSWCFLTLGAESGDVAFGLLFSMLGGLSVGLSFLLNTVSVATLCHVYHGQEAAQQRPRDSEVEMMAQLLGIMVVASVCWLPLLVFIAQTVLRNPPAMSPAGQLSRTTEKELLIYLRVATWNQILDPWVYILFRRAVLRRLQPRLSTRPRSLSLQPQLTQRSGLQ
The experiment in a line: Dissociation constant was determined from radioligand binding studies in human platelet membranes using Thromboxane A2 receptor radioligand [3H]-SQ 29,548. The format is cell membranes.

The species named for test [1] is Homo sapiens. The experiment in a line: Tested for inhibition of platelet aggregation induced by arachidonic acid (AAIPA) in human platelet rich plasma. Conditions: read-out: I50. The format is functional.
Test [2] is filed under the species Homo sapiens. The experiment in a line: Tested for inhibition of platelet aggregation induced by U-46,619 (U-IPA) in human platelet rich plasma. The format is functional. The note with it: read-out: I50.

Consider `O=C(O)CCc1ccccc1Cc1ccccc1-c1nc(C(=O)NCCCCC2CCCCC2)co1`, for which the affinity at Thromboxane A2 receptor, expressed as Kd, was 19 nM. In addition, the IC50 in the test filed under Homo sapiens [1] stood at 31 nM; in the test filed under Homo sapiens [2], 110 nM.

`O=C(O)Cc1ccccc1Cc1ccccc1-c1nc(C(=O)NCCCCC2CCCCC2)co1`: the figures for the IC50 in the test listed under Homo sapiens [1] and in the test filed under Homo sapiens [2] were 67000 nM and 330000 nM, respectively.

With `O=C(O)CCCc1ccccc1Cc1ccccc1-c1nc(C(=O)NCCCCC2CCCCC2)co1`, the IC50 came to 58 nM in the test filed under Homo sapiens [1] and 630 nM in the test listed under Homo sapiens [2].

As for `O=C(O)Cc1cccc(Cc2ccccc2-c2nc(C(=O)NCCCCC3CCCCC3)co2)c1`, the results for the IC50 in the test filed under Homo sapiens [1] and in the test filed under Homo sapiens [2] were 2000 nM and 6000 nM, respectively.

For `O=C(O)CCc1cccc(Cc2ccccc2-c2nc(C(=O)NCCCCC3CCCCC3)co2)c1`, the results for the IC50 in the test listed under Homo sapiens [1] and in the test listed under Homo sapiens [2] were 470 nM and 2000 nM, respectively.

Source of the values: ChEMBL document CHEMBL1152043, “Interphenylene phenyl oxazoles: novel, potent thromboxane receptor antagonists” (Bioorg Med Chem Lett, 1992).
